Series [1] deals with Tyrosine-protein kinase Lck (Homo sapiens, UniProt P06239).
Description: Inhibition of human Lck in presence of ATP
The test system of series [2] is T-cell. The experiment in a line: Inhibition of anti CD3/anti CD28-induced T cell proliferation. Type of series: functional, cell-based. As to conditions: Homo sapiens.
Series [3] has as its system Rattus norvegicus. The experiment in a line: Volume of distribution in rat at 10 mg/kg, iv and po. As to conditions: in vivo. Also on record: dose 10 mg/kg, route oral. Type of series: ADME, organism-based.
The subject of series [4] is Mus musculus. In words: Inhibition of anti CD3/anti CD28-induced IL2 production in po dosed BALB/c mouse. Type of series: functional.
Series [5] deals with PBMC. In words: Inhibition of LPS-induced TNFalpha production in human PBMC. Type of series: functional, cell-based.
The target of series [6] is Receptor tyrosine-protein kinase erbB-2 (Homo sapiens, UniProt P04626). The experiment in a line: Inhibition of Her2.
The target of series [7] is Proto-oncogene tyrosine-protein kinase Src (Homo sapiens, UniProt P12931). In words: Inhibition of Src in presence of ATP.
In series [8] the target is Tyrosine-protein kinase Fgr (Homo sapiens, UniProt P09769). The experiment in a line: Inhibition of Fgr.
Series [9] deals with Proto-oncogene tyrosine-protein kinase LCK (Mus musculus, UniProt P06240).
Description: Inhibition of murine Lck in presence of ATP
The test system of series [10] is Mus musculus. In words: Inhibition of LPS-induced TNFalpha production in C57BL/6 mouse at 60 mg/kg, po. Conditions: C57BL/6, po.
Series [11] has as its target Fibroblast growth factor receptor 1 (Homo sapiens, UniProt P11362). In words: Inhibition of FGFR1.
Series [12] addresses Tyrosine-protein kinase Lyn (Homo sapiens, UniProt P07948). In words: Inhibition of Lyn.
The target in series [13] is Tyrosine-protein kinase Yes (Homo sapiens, UniProt P07947). The experiment in a line: Inhibition of Yes.
For series [14], the target named is Proto-oncogene tyrosine-protein kinase LCK (Mus musculus) (UniProt P06240). As to conditions: 50 uM.
Sequence of Proto-oncogene tyrosine-protein kinase LCK (Mus musculus) (P06240 2-509 limits assumed): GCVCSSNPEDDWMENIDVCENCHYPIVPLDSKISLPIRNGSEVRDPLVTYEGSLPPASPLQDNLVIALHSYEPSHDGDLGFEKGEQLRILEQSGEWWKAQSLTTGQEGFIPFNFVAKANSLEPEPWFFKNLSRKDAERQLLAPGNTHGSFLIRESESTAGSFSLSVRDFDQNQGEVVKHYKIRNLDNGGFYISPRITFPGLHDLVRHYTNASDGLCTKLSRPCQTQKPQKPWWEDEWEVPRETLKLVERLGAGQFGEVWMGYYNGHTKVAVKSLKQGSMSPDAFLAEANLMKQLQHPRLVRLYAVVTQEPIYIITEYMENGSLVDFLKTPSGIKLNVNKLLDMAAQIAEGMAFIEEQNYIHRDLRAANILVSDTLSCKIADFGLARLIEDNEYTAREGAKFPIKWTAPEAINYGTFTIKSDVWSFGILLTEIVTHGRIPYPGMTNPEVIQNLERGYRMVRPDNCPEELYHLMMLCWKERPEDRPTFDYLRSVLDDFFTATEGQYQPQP
Description: Inhibition of murine Lck at 50 uM

Sequence of Tyrosine-protein kinase Lck (P06239 whole entry): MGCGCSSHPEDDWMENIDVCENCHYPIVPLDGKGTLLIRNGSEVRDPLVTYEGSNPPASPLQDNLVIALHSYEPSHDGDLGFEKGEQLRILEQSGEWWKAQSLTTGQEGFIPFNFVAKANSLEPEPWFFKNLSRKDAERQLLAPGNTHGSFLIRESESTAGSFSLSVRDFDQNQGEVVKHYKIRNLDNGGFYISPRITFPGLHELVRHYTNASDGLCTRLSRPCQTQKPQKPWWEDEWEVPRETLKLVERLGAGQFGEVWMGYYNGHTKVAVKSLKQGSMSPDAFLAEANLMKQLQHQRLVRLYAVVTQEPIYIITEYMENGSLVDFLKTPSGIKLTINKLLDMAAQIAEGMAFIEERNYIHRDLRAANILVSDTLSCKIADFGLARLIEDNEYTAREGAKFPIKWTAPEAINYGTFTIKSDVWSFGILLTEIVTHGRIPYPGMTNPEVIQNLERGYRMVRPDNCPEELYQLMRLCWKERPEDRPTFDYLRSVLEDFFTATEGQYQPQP
Sequence of Proto-oncogene tyrosine-protein kinase LCK (P06240 whole entry): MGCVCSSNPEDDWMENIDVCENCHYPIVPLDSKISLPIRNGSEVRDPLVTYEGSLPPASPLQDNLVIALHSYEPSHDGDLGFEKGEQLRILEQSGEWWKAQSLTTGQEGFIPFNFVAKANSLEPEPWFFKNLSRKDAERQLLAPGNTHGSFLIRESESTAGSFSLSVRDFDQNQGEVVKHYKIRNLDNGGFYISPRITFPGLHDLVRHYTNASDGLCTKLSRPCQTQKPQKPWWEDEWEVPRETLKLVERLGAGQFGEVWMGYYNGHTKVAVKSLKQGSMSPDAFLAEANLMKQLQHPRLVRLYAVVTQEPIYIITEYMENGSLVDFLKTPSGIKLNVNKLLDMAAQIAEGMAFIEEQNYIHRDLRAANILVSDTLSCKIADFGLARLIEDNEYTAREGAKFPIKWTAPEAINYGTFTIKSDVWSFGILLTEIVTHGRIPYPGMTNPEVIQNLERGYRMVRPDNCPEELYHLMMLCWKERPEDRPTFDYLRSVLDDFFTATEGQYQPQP
Sequence of Proto-oncogene tyrosine-protein kinase Src (P12931 2-536 limits assumed): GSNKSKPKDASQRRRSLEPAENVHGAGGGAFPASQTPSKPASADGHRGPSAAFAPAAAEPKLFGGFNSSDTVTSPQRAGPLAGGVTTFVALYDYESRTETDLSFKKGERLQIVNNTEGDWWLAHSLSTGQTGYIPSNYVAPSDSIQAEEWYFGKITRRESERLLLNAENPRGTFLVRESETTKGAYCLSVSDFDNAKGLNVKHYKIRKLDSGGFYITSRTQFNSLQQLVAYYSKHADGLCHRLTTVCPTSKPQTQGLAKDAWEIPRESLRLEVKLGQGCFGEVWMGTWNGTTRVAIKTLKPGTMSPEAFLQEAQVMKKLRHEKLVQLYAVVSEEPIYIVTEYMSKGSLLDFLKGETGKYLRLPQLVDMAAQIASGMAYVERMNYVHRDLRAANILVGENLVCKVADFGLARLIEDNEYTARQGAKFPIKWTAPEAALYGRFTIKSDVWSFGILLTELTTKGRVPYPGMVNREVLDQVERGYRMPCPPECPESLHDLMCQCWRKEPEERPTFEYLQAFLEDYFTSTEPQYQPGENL
Sequence of Tyrosine-protein kinase Fgr (P09769 whole entry): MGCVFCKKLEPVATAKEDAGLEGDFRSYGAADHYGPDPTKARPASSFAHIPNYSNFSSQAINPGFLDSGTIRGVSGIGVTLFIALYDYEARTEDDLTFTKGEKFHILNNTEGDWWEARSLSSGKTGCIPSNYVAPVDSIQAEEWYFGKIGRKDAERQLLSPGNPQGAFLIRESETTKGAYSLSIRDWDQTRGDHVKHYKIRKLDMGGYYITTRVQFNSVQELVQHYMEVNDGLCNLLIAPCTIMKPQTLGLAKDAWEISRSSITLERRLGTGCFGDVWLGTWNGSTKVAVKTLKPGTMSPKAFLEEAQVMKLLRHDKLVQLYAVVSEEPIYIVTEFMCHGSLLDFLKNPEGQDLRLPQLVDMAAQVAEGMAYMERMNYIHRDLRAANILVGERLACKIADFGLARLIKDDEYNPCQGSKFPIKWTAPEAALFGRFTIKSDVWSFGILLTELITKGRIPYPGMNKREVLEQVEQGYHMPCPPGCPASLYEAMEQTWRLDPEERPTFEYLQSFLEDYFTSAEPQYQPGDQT
Sequence of Tyrosine-protein kinase Lyn (P07948 whole entry): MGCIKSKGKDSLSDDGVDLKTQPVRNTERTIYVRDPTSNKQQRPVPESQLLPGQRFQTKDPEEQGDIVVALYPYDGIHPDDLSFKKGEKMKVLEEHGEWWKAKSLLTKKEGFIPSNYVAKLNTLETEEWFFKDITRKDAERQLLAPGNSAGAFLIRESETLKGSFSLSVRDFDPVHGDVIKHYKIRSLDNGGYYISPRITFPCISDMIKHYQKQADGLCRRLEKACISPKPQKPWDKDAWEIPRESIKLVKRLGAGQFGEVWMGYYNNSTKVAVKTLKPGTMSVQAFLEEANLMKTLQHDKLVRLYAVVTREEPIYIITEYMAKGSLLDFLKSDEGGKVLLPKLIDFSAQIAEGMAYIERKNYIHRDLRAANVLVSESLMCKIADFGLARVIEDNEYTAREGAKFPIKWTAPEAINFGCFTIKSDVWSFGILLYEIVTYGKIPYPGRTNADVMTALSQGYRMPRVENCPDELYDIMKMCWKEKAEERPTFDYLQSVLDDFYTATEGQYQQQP
Sequence of Fibroblast growth factor receptor 1 (P11362 whole entry): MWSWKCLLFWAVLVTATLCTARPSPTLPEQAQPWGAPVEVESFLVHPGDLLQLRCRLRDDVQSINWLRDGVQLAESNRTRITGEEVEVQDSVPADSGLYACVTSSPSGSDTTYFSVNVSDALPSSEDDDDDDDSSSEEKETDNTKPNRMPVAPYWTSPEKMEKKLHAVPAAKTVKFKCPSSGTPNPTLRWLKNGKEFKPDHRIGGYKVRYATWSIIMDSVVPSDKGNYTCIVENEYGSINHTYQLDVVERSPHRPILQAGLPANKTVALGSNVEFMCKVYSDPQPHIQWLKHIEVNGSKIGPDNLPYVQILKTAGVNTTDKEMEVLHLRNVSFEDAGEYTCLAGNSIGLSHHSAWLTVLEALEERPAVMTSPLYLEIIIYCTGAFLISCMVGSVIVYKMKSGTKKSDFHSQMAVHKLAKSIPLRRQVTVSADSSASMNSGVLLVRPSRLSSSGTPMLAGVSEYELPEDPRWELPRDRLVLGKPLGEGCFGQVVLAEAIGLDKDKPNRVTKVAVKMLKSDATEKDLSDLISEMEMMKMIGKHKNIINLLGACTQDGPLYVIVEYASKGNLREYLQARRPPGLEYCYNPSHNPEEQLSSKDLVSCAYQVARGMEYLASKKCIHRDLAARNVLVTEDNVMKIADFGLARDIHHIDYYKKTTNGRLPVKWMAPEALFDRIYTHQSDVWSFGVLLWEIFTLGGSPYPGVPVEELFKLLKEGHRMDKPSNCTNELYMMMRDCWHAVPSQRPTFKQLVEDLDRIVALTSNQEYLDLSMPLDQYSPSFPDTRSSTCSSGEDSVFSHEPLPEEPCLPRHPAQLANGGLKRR
Sequence of Tyrosine-protein kinase Yes (P07947 whole entry): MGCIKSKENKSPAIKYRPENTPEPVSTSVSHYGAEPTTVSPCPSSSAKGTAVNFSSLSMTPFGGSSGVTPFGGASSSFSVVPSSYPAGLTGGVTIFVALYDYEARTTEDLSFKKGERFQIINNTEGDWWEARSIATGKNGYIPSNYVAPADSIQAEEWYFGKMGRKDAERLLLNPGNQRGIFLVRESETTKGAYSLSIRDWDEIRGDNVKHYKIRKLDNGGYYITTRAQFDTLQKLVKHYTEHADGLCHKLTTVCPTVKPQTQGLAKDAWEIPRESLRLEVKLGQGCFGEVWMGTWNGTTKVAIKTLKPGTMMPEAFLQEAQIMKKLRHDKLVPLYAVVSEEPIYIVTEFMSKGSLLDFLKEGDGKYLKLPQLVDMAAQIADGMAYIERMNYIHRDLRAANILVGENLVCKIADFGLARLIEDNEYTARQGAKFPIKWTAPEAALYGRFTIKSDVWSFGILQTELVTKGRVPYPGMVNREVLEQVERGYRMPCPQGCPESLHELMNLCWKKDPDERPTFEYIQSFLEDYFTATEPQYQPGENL

Consider `Cc1cccc(Cl)c1NC(=O)c1cnc(NC(=O)C2CCCC2)s1`, for which the IC50 – broadly, the midpoint of a concentration-inhibition curve – in series [1] was determined as 1340 nM.

On to `Cc1cccc(Cl)c1NC(=O)c1cnc(NC(=O)c2cccs2)s1`, for which half-maximal inhibition in series [1] (IC50) required 2230 nM.

On to `Cc1cccc(Cl)c1NC(=O)c1sc(NC(=O)c2ccsc2)nc1C`, for which half-maximal inhibition in series [1] (IC50) required 390 nM.

As for `Cc1cc(C)nc(Nc2ncc(C(=O)Nc3c(C)cccc3Cl)s2)c1`, the IC50 came out at 140 nM in series [2] and 4 nM in series [1].

Take `Cc1cnc(Nc2ncc(C(=O)Nc3c(C)cccc3Cl)s2)c(C)n1`: the 50% inhibitory concentration (IC50) in [2] turned out to be 570 nM; in series [1], 6.3 nM.

In turn, `Cc1cc(C)nc(Nc2ncc(C(=O)Nc3c(C)cccc3Cl)s2)n1` returned an IC50 in series [1] of 50 nM.

Consider `Cc1cccc(Cl)c1NC(=O)c1cnc(Nc2cccc(NCCO)n2)s1`, for which the values for the IC50 in series [2] and in series [1] were 75 nM and below 0.2 nM, respectively.

As for `Cc1nc(Nc2ncc(C(=O)Nc3c(C)cccc3Cl)s2)cc(N2CCC(CO)CC2)n1`, the IC50 came out at 4 nM in [2] and 0.7 nM in [1].

Consider `Cc1cccc(Cl)c1NC(=O)c1cnc(Nc2cccnn2)s1`, for which the IC50 was 350 nM in series [2] and 4 nM in series [1].

In series [3], `Cc1cc(Nc2ncc(C(=O)Nc3c(C)cccc3Cl)s2)nc(C)n1` registered a Vss of 12 L/kg. Moreover, the ED50 – broadly, the dose that gives a 50% effect, or the effect in half of the subjects – in [4] came out at 5 mg/kg. Also, the IC50 in series [5] is 670 nM; in [6], 500 nM; in series [7], below 2 nM; in series [8], 0.8 nM; in [2] it was 80 nM; in series [11], above 10000 nM. Besides, the IC50 worked out at 4 nM in series [12], 2 nM in series [13] and 1 nM in series [1]. The Ki (usually the equilibrium dissociation constant of an inhibitor or competing ligand from its target) in series [9] came out at 0.13 nM. Besides, testing at 60 mg/kg in series [10] gave an inhibition in vivo of 90%.

Molecule `Cc1cc(C)c(NC(=O)c2sc(NC(=O)C(C)(C)C)nc2C)c(C)c1` had an IC50 in series [1] of 12100 nM.

In turn, `Cc1nc(Nc2ncc(C(=O)Nc3c(C)cccc3Cl)s2)cc(N2CCN(CCO)CC2)n1` [DASATINIB] registered an IC50 in series [2] of 3 nM.

`Cc1cc(C)c(NC(=O)c2cnc(Nc3cnccn3)s2)c(C)c1`: the figures for the IC50 in series [2] and in series [1] were 500 nM and 4.9 nM, respectively.

Regarding `Cc1cc(C)c(NC(=O)c2sc(NC(=O)OCc3ccccc3)nc2C)c(C)c1`, the IC50 in [9] is 33300 nM.

With `Cc1cc(C)c(NC(=O)c2sc(N)nc2C)c(C)c1`, the IC50 in series [2] is above 10000 nM.

On to `Cc1cc(C)c(NC(=O)c2sc(NC(=O)Nc3ccccc3)nc2C)c(C)c1`, for which the IC50 turned out to be 90 nM in [9] and 160 nM in series [1].

As for `Cc1cc(C)c(NC(=O)c2sc(NC(=O)NCc3ccccc3)nc2C)c(C)c1`, the IC50 in [9] came out at 100 nM; in series [1], 130 nM.

For the molecule `Cc1cccc(C)c1NC(=O)c1cnc(Nc2ccccn2)s1`, the half-maximal inhibitory concentration (IC50) in [2] came to 180 nM; in series [1], 1.2 nM.

As for `Cc1nc(NCCO)cc(Nc2ncc(C(=O)Nc3c(C)cccc3Cl)s2)n1`, the results for the IC50 in [2] and in series [1] were 23 nM and 0.2 nM, respectively.

For the molecule `Cc1cccc(Nc2ncc(C(=O)Nc3c(C)cccc3Cl)s2)n1`, the results for the IC50 in series [2] and in series [1] were 110 nM and 0.6 nM, respectively.

In the case of `Cc1cc(C)c(NC(=O)c2cnc(Nc3ccccn3)s2)c(C)c1`, the IC50 was found to be 510 nM in series [2] and 5 nM in series [1].

In series [1], `Cc1cc(C)c(NC(=O)c2sc(NC(=O)c3ccoc3)nc2C)c(C)c1` had an IC50 of 1200 nM.

With `Cc1cccc(Cl)c1NC(=O)c1cnc(Nc2ccncc2)s1`, the results for the IC50 in [2] and in series [1] were 270 nM and 9.4 nM, respectively.

Consider `Cc1nc(NC(=O)OC(C)(C)C)sc1C(=O)Nc1ccccc1`, for which the inhibition – broadly, the share of the control response that was lost under treatment – in series [14] was found to be 28%.

`Cc1cccc(Cl)c1NC(=O)c1cnc(NC(=O)C2CC2)s1` yielded an IC50 in series [2] of 884 nM.

Regarding `Cc1ccnc(Nc2ncc(C(=O)Nc3c(C)cccc3Cl)s2)c1`, the IC50 in series [2] was determined as 80 nM; in [1] it was 0.5 nM.

Take `Cc1cccc(Cl)c1NC(=O)c1cnc(Nc2ccccn2)s1`: the IC50 in series [2] came out at 140 nM; in series [1], 1.2 nM.

Turning to `Cc1ccc(NC(=O)c2sc(NC(=O)OC(C)(C)C)nc2C)c(C)c1`, the IC50 in series [9] is 27400 nM.

In the case of `Cc1cccc(Cl)c1NC(=O)c1cnc(Nc2cccnc2)s1`, the IC50 in [2] is 870 nM; in [1] it was 6.7 nM.

In the case of `Cc1cc(C)c(NC(=O)c2cnc(Nc3cc(C)nc(C)n3)s2)c(C)c1`, the IC50 in [2] was found to be 140 nM; in series [1], 3 nM.

Take `Cc1cccc(C)c1NC(=O)c1cnc(Nc2cccnn2)s1`: the IC50 in [2] came to 350 nM; in series [1] it was 0.3 nM.

Consider `Cc1cccc(Cl)c1NC(=O)c1cnc(NC(=O)c2ccsc2)s1`, for which the IC50 in series [2] is above 2000 nM; in [1], 17 nM.

As for `CC(=O)Nc1nc(C)c(C(=O)Nc2c(C)cc(C)cc2C)s1`, the IC50 in [9] is 510 nM; in series [1], 480 nM.

For `Cc1nc(Nc2ncc(C(=O)Nc3c(C)cccc3Cl)s2)cc(N2CCOCC2)n1`, the IC50 came out at 5 nM in series [2] and 1.3 nM in [1].

On to `Cc1cccc(Cl)c1NC(=O)c1cnc(Nc2cc(N3CCOCC3)ncn2)s1`, for which the IC50 came out at 3 nM in series [2] and 0.5 nM in series [1].

Turning to `Cc1nc(NCCCN2CCOCC2)cc(Nc2ncc(C(=O)Nc3c(C)cccc3Cl)s2)n1`, the IC50 in [2] came out at 7 nM; in [1], 0.7 nM.

In the case of `Cc1cccc(Cl)c1NC(=O)c1sc(NC(=O)c2cccs2)nc1C`, half-maximal inhibition in series [1] (IC50) required 130 nM.

As for `Cc1cccc(Cl)c1NC(=O)c1cnc(Nc2cccc(NCCCN3CCOCC3)n2)s1`, the IC50 turned out to be 8 nM in series [2] and 0.5 nM in [1].

Turning to `Cc1cccc(Cl)c1NC(=O)c1cnc(Nc2cccc(NCCCn3ccnc3)n2)s1`, the IC50 in series [2] was 2 nM; in series [1], below 0.5 nM.

Take `Cc1cc(C)c(NC(=O)c2sc(NC(=O)c3ccsc3)nc2C)c(C)c1`: the midpoint of inhibition in series [1], the IC50, lay at 180 nM.

As to `Cc1cc(C)c(NC(=O)c2sc(NC(=O)NC(C)(C)C)nc2C)c(C)c1`, inhibition in series [1] was half-maximal at 1300 nM (IC50).

For the origin of these results see ChEMBL document CHEMBL1137331 (J Med Chem, 2006).
